# *1 amine or outer side, *2 acyl side, *3 side chain or, on linkers, in order; H or OH if unused. Where a SMILES comes first, the peptide text is derived from it. Side-chain parts run from the residue outwards. The star is where a group is joined. C18 diacid = O=C(O)CCCCCCCCCCCCCCCCC(=O)*; γGlu = O=C(O)[C@H](CCC(=O)[*:2])N[*:1]; Isovaleryl = CC(C)CC(=O)*; AEEA = NCCOCCOCC(=O)O
# Target: T1, Human Neuropeptide Y2 Receptor (Homo sapiens, UniProt P49146)
# T1 construct: purchased CHEMICON HTS066M
# T1 sequence (P49146 1-381): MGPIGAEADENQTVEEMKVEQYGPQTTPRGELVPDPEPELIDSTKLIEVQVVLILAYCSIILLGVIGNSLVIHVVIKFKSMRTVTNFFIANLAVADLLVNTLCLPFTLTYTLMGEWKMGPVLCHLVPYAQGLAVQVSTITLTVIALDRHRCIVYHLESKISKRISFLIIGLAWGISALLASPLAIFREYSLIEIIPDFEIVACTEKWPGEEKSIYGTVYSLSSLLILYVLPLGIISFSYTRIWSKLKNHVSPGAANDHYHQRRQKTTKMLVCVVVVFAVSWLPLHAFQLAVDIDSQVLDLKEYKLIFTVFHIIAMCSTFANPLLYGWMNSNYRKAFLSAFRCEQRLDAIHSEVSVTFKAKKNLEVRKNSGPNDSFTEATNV
# Assay: Radioligand binding competition assay (RLB)
# Settings: Table 3; human 125I-PYY (1-36) 0.02 nM, Y2 receptor membranes; read-out: Ki
# Summary of the method: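 Competition binding on human Y2 receptor membranes, 0.5 μg protein/well, in 50 mM HEPES, 5 mM MgCl2, 1 mM CaCl2, pH 7.4, 0.2% ovalbumin; peptides diluted from 1 mM DMSO stocks.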
row,SMILES,Ki
1,"CC[C@H](C)[C@H](NC(=O)[C@H](CCC(=O)O)NC(=O)[C@H](CCC(=O)O)NC(=O)[C@@H]1CCCN1C(=O)[C@H](CO)NC(=O)[C@H](C)NC(=O)[C@H](CC(=O)O)NC(=O)[C@H](CCC(=O)O)NC(=O)[C@H](CCC(=O)O)NC(=O)[C@H](C)NC(=O)[C@H](CCCCNC(=O)COCCOCCNC(=O)COCCOCCNC(=O)CC[C@H](NC(=O)CCCCCCCCCCCCCCCCC(=O)O)C(=O)O)NC(=O)[C@H](CCC(=O)O)NC(=O)[C@@H]1CCCN1C(=O)[C@H](C)NC(=O)CC(C)C)C(=O)N[C@@H](CCC(N)=O)C(=O)N[C@@H](CCCNC(=N)N)C(=O)N[C@@H](Cc1ccc(O)cc1)C(=O)N[C@@H](Cc1ccc(O)cc1)C(=O)N[C@H](C(=O)N[C@@H](CO)C(=O)N[C@@H](CC(C)C)C(=O)N[C@@H](CCCNC(=N)N)C(=O)N[C@@H](Cc1c[nH]cn1)C(=O)N[C@@H](Cc1ccc(O)cc1)C(=O)N[C@@H](Cc1ccc(O)cc1)C(=O)N[C@@H](CC(N)=O)C(=O)N[C@@H](Cc1c[nH]c2ccccc12)C(=O)N[C@@H](CC(C)C)C(=O)N[C@H](C(=O)N[C@@H](CCCNC(=N)N)C(=O)N[C@@H](CCC(N)=O)C(=O)N[C@@H](CCCNC(=N)N)C(=O)N[C@@H](Cc1ccc(O)cc1)C(N)=O)[C@@H](C)O)C(C)C [Compound 152, N{alpha-4}-(3-methylbutanoyl)-N{epsilon-7}-[2-(2-{2-[2-(2-{2-[(4S)-4-carboxy-4-(17-carboxyheptadecanamido)butanamido]ethoxy}ethoxy)acetamido]ethoxy}ethoxy)acetamido]-[4A,7K,8A,9E,17I,18Q,22V,28Y,30W,31L]hPYY (4-36)]",5.18 nM
2,"CC(C)CC(=O)N[C@@H](C)C(=O)N1CCC[C@H]1C(=O)N[C@@H](CCC(=O)O)C(=O)N[C@@H](CCCCNC(=O)COCCOCCNC(=O)COCCOCCNC(=O)CC[C@H](NC(=O)CCCCCCCCCCCCCCCCC(=O)O)C(=O)O)C(=O)N[C@H](C(=O)N[C@@H](CCC(=O)O)C(=O)N[C@@H](CCC(=O)O)C(=O)N[C@@H](CCC(=O)O)C(=O)N[C@@H](C)C(=O)N[C@@H](CO)C(=O)N1CCC[C@H]1C(=O)N[C@@H](CCC(=O)O)C(=O)N[C@@H](CCC(=O)O)C(=O)N[C@@H](CC(C)C)C(=O)N[C@@H](CCC(N)=O)C(=O)N[C@@H](CCCNC(=N)N)C(=O)N[C@@H](Cc1ccc(O)cc1)C(=O)N[C@@H](Cc1ccc(O)cc1)C(=O)N[C@H](C(=O)N[C@@H](CO)C(=O)N[C@@H](CC(C)C)C(=O)N[C@@H](CCCNC(=N)N)C(=O)N[C@@H](Cc1c[nH]cn1)C(=O)N[C@@H](Cc1ccc(O)cc1)C(=O)N[C@@H](Cc1ccc(O)cc1)C(=O)N[C@@H](CC(N)=O)C(=O)N[C@@H](Cc1c[nH]c2ccccc12)C(=O)N[C@@H](CC(C)C)C(=O)N[C@H](C(=O)N[C@@H](CCCNC(=N)N)C(=O)N[C@@H](CCC(N)=O)C(=O)N[C@@H](CCCNC(=N)N)C(=O)N[C@@H](Cc1ccc(O)cc1)C(N)=O)[C@@H](C)O)C(C)C)C(C)C [Compound 153, N{alpha-4}-(3-methylbutanoyl)-N{epsilon-7}-[2-(2-{2-[2-(2-{2-[(4S)-4-carboxy-4-(17-carboxyheptadecanamido)butanamido]ethoxy}ethoxy)acetamido]ethoxy}ethoxy)acetamido]-[4A,7K,8V,9E,11E,18Q,22V,28Y,30W,31L]hPYY (4-36)] (Isovaleryl-APEK([AEEA-AEEA-γGlu-C18 diacid])VEEEASPEELQRYYVSLRHYYNWLTRQRY-NH2)",14.4 nM
3,"CC(C)CC(=O)N[C@@H](C)C(=O)N1CCC[C@H]1C(=O)N[C@@H](CCC(=O)O)C(=O)N[C@@H](CCCCNC(=O)COCCOCCNC(=O)COCCOCCNC(=O)CC[C@H](NC(=O)CCCCCCCCCCCCCCCCC(=O)O)C(=O)O)C(=O)N1CCC[C@H]1C(=O)N[C@@H](CCC(=O)O)C(=O)N[C@@H](CCC(=O)O)C(=O)N[C@@H](CC(=O)O)C(=O)N[C@@H](C)C(=O)N[C@@H](CO)C(=O)N1CCC[C@H]1C(=O)N[C@@H](CCC(=O)O)C(=O)N[C@@H](CCC(=O)O)C(=O)N[C@@H](CC(C)C)C(=O)N[C@@H](CCC(N)=O)C(=O)N[C@@H](CCCNC(=N)N)C(=O)N[C@@H](Cc1ccc(O)cc1)C(=O)N[C@@H](Cc1ccc(O)cc1)C(=O)N[C@H](C(=O)N[C@@H](CO)C(=O)N[C@@H](CC(C)C)C(=O)N[C@@H](CCCNC(=N)N)C(=O)N[C@@H](Cc1c[nH]cn1)C(=O)N[C@@H](Cc1ccc(O)cc1)C(=O)N[C@@H](Cc1c[nH]c2ccccc12)C(=O)N[C@@H](CC(N)=O)C(=O)N[C@@H](Cc1ccc(O)cc1)C(=O)N[C@@H](CC(C)C)C(=O)N[C@H](C(=O)N[C@@H](CCCNC(=N)N)C(=O)N[C@@H](CCC(N)=O)C(=O)N[C@@H](CCCNC(=N)N)C(=O)N[C@@H](Cc1ccc(O)cc1)C(N)=O)[C@@H](C)O)C(C)C [Compound 158, N{alpha-4}-(3-methylbutanoyl)-N{epsilon-7}-[2-(2-{2-[2-(2-{2-[(4S)-4-carboxy-4-(17-carboxyheptadecanamido)butanamido]ethoxy}ethoxy)acetamido]ethoxy}ethoxy)acetamido]-[4A,7K,9E,18Q,22V,28W,30Y,31L]hPYY (4-36)] (Isovaleryl-APEK([AEEA-AEEA-γGlu-C18 diacid])PEEDASPEELQRYYVSLRHYWNYLTRQRY-NH2)",4.43 nM

# Stronger by Ki, values ahead:
row,Ki,SMILES
1,2.75 nM,"CC(C)CC(=O)N[C@@H](C)C(=O)N1CCC[C@H]1C(=O)N[C@@H](CCC(=O)O)C(=O)N[C@@H](CCCCNC(=O)COCCOCCNC(=O)COCCOCCNC(=O)CC[C@H](NC(=O)CCCCCCCCCCCCCCCCC(=O)O)C(=O)O)C(=O)N1CCC[C@H]1C(=O)N[C@@H](CCC(=O)O)C(=O)N[C@@H](CCC(=O)O)C(=O)N[C@@H](C)C(=O)N[C@@H](C)C(=O)N[C@@H](CO)C(=O)N1CCC[C@H]1C(=O)N[C@@H](CCC(=O)O)C(=O)N[C@@H](CCC(=O)O)C(=O)N[C@@H](CC(C)C)C(=O)N[C@@H](CCC(N)=O)C(=O)N[C@@H](CCCNC(=N)N)C(=O)N[C@@H](Cc1ccc(O)cc1)C(=O)N[C@@H](Cc1ccc(O)cc1)C(=O)N[C@H](C(=O)N[C@@H](CCC(=O)O)C(=O)N[C@@H](CC(C)C)C(=O)N[C@@H](CCCNC(=N)N)C(=O)N[C@@H](Cc1c[nH]cn1)C(=O)N[C@@H](Cc1ccc(O)cc1)C(=O)N[C@@H](Cc1ccc(O)cc1)C(=O)N[C@@H](CC(N)=O)C(=O)N[C@@H](Cc1c[nH]c2ccccc12)C(=O)N[C@@H](CC(C)C)C(=O)N[C@H](C(=O)N[C@@H](CCCNC(=N)N)C(=O)N[C@@H](CCC(N)=O)C(=O)N[C@@H](CCCNC(=N)N)C(=O)N[C@@H](Cc1ccc(O)cc1)C(N)=O)[C@@H](C)O)C(C)C [Compound 149, N{alpha-4}-(3-methylbutanoyl)-N{epsilon-7}-[2-(2-{2-[2-(2-{2-[(4S)-4-carboxy-4-(17-carboxyheptadecanamido)butanamido]ethoxy}ethoxy)acetamido]ethoxy}ethoxy)acetamido]-[4A,7K,9E,11A,18Q,22V,23E,28Y,30W,31L]hPYY (4-36)]"
2,2.05 nM,"CC(C)CC(=O)N[C@@H](C)C(=O)N1CCC[C@H]1C(=O)N[C@@H](CCC(=O)O)C(=O)N[C@@H](CCCCNC(=O)COCCOCCNC(=O)COCCOCCNC(=O)CC[C@H](NC(=O)CCCCCCCCCCCCCCCCC(=O)O)C(=O)O)C(=O)N1CCC[C@H]1C(=O)N[C@@H](CCC(=O)O)C(=O)N[C@@H](CCC(=O)O)C(=O)N[C@@H](CC(=O)O)C(=O)N[C@@H](C)C(=O)N[C@@H](CO)C(=O)N1CCC[C@H]1C(=O)N[C@@H](CCC(=O)O)C(=O)N[C@@H](CCC(=O)O)C(=O)N[C@H](C(=O)N[C@@H](CCC(N)=O)C(=O)N[C@@H](CCCNC(=N)N)C(=O)N[C@@H](Cc1ccc(O)cc1)C(=O)N[C@@H](Cc1ccc(O)cc1)C(=O)N[C@H](C(=O)N[C@@H](CO)C(=O)N[C@@H](CC(C)C)C(=O)N[C@@H](CCCNC(=N)N)C(=O)N[C@@H](Cc1c[nH]cn1)C(=O)N[C@@H](Cc1ccc(O)cc1)C(=O)N[C@@H](Cc1ccc(O)cc1)C(=O)N[C@@H](CC(N)=O)C(=O)N[C@@H](Cc1c[nH]c2ccccc12)C(=O)N[C@@H](CC(C)C)C(=O)N[C@H](C(=O)N[C@@H](CCCNC(=N)N)C(=O)N[C@@H](CCC(N)=O)C(=O)N[C@@H](CCCNC(=N)N)C(=O)N[C@@H](Cc1ccc(O)cc1)C(N)=O)[C@@H](C)O)C(C)C)[C@@H](C)O [Compound 155, N{alpha-4}-(3-methylbutanoyl)-N{epsilon-7}-[2-(2-{2-[2-(2-{2-[(4S)-4-carboxy-4-(17-carboxyheptadecanamido)butanamido]ethoxy}ethoxy)acetamido]ethoxy}ethoxy)acetamido]-[4A,7K,9E,17T,18Q,22V,28Y,30W,31L]hPYY (4-36)]"

# Source: patent publication US12559529B2, “NPY2 receptor agonists” (Boehringer Ingelheim International GmbH, priority 2019, dated 2026)
